Several values for one entry are separate records, joined by “and”; a condition that tells them apart may be missing. Identical values can stand only once. Starred links: 1 amine or outer side, 2 acyl side, 3 side chain; linkers in the order of their positions; H or OH if unused. Positions of bridges follow the written chain, without caps; N, C: chain ends. Non-standard residues stand in square brackets, D forms with d. Residues, ends and D or L forms follow the SMILES beside them. X1 = CC(C)CCCCCCCCC[C@H](CC(=O)[*:1])O[*:2]
Tests used:
cold sores = assay: Additional clinical data and case study, cold sores; format: in vivo, human; conditions: case study patient (untreated 2-4 weeks)
[1] = at 24 hours (Zeichner, '13); cited from earlier work
C. trachomatis = conditions: Bergsson, '98; cited from earlier work
[2] = aqueous
enveloped viruses = conditions: at 1 hour, virtually all enveloped viruses tested (Hierholzer, '16); cited from earlier work
P. acnes = assay: Protocol #4 in-vitro time-kill (ASTM E2315); format: cell-based, Propionibacterium acnes
Method: PURPOSE: This evaluation uses an in-vitro time-kill method to quantitatively assess the bactericidal activity of […] (10) formulations when challenged with P. acnes. An in vitro time-kill evaluation was conducted with various compositions based upon the methods described in the standardized ASTM […], Standard Guide for Assessment of Antimicrobial Activity Using a Time-Kill Procedure. […] A neutralization assay was performed on all the challenge organisms. Testing at pH 4.0.

[3] = cited from earlier work
[4] = test system: Candida albicans (ATCC MYA-2876; TPPS 1078), planktonic; assay: P #5A planktonic antifungal testing; format: cell-based; conditions: up to 5-hour contact time, lecithin solubilizer
Method: Two sets of planktonic antifungal tests were performed, Candida and the dermatophyte Epidermophyton floccusum. Fungal strains-Candida albicans (ATCC MYA-2876; TPPS 1078) procured from the American Type Culture Collection, Manassas, VA.-Epidermophyton floccosum (ATCC 15693; TPPS 1243) procured from the American Type Culture Collection, Manassas, VA.

[5] = test system: Pseudomonas aeruginosa biofilm; assay: Biofilm Protocol #3, LR against 48-hour biofilm, CDC Biofilm Reactor; format: cell-based; conditions: pH 9.0, 5 hours contact time
Method: LR testing was performed with varying compositions of GML and UDA against Staph. aureus, Pseudomonas aeruginosa, E. coli., Klebsiella pneumonia, Enterococcus faecalis. All biofilm is 48 hour laboratory grown. Biofilms of the tested organisms were grown in the laboratory to become mature 48-hour old biofilm. Testing involved the evaluation of numerous composition combinations for their ability to kill biofilm-associated pathogens grown using a CDC Biofilm Reactor. The ability to kill organisms was documented as a LR of the selected organisms that was measured as CFUs (colony forming units). LRs were documented for the different composition combinations. Testing protocols initially included both FAs and esters. […] LR testing was performed with numerous combinations to determine an optimal combination. […] Additional combinations comprised the plant phenol/flavonoid quercetin, amino acids, the synthetic surfactant SLS, biosurfactants RL and MEL, and UDA. The BS SL was not tested due to poor results in the prior P #2 configurations. […] The TSC served as a buffer. […] Alkaline pH was buffered with disodium hydrogen phosphate or glycine.

[6] = test system: Herpes Simplex Virus type 1 strain HF (ATCC #VR-260); assay: Virucidal Suspension Test (ASTM E1052-20, in-vitro time-kill); format: cell-based; conditions: pH 9.0, 30 sec
Excerpt: The testing was based upon ASTM E1052-20, Standard Practice to Assess the Activity of Microbicides against Viruses in Suspension. The first antiviral testing protocols involve only HSV-1 virus with both alkaline and acid pH tests.
This study was done to determine virucidal efficacy of twelve test products when challenged with Herpes Simplex Virus type 1 strain HF (ATCC #VR-260) based upon a Virucidal Suspension Test (In-Vitro Time-Kill method). The test products comprise 8 varying compositions. Calculations of the estimated virus concentrations was performed using a 50% tissue culture infectious dose (TCID50) calculation—the Quantal test (Spearman-Karber Method). The logo reductions from the initial population of the viral strain were determined following exposure to the test product for 30 seconds, 2.5 minutes and 5 minutes. Testing was conducted in one replicate. Plating was performed in four replicates. […]
This study was done to determine virucidal efficacy of 12 test products when challenged with HSV-1 strain HF (ATCC #VR-260) and Human Coronavirus strain OC43 (ZeptoMetrix #0810024CF) based upon a Virucidal Suspension Test (In-Vitro Time-Kill method). […] The log 10 reductions from the initial population of the viral strain were determined following exposure to the test product for 30 seconds, 2.5 minutes and 5 minutes. […]

[7] = test system: Pseudomonas aeruginosa (ATCC #15442) biofilm; assay: Biofilm Protocol #1, ASTM E2871 single tube method, CDC Biofilm Reactor; conditions: 5-minute contact time; for Log10 CFU/Coupon: treated coupons
[8] = test system: Staphylococcus aureus (ATCC #6538) biofilm; assay: as above; conditions: 5-minute contact time; for Log10 CFU/Coupon: treated coupons
[9] = test system: Staphylococcus aureus MRSA (ATCC #6538) biofilm; assay: Biofilm Protocol #2, ASTM E2871 single tube method, 48 hour biofilm; format: cell-based
Method: (§1) In this round of testing, it was the intent to test numerous potential antibiofilm combinations.
(§2) EtOH (ethanol) was used as a solvent for all hydrophobic compounds: SLs, CaprAc, CURC and OCT. EtOH was used at up to 1.0% concentration.
(§3) Alkaline pH is achieved with NaOH titration.
(§4) Each was performed in one replicate for each species. A single sponsor-selected exposure duration was evaluated. The challenge organisms for this evaluation were Pseudomonas aeruginosa (ATCC #15442) and Staphylococcus aureus MRSA (ATCC #6538

[10] = test system: Pseudomonas aeruginosa (ATCC #15442) biofilm; assay: as above; format: cell-based
Method: as §1, §2, §3, §4

[11] = test system: Candida albicans 48 hour biofilm; assay: P #5B-D Candida biofilm testing; format: cell-based; conditions: pH 9.0-9.5, one hour contact time
Method: Organisms: Candida albicans ([…] 1078). Date Culture Initiated: […] Culture Medium: Sabouraud dextrose agar. […] These tests were performed utilizing only UDA, due to the poor GML results in P #5A. […] […] Effect of Aspartic Acid, Cysteine, Salicylic Acid […] Prior literature indicates poor antifungal effects in alkaline pH, thus it was the intent to document whether disclosed compositions would generate an improved antifungal effect in alkaline pH.

[12] = test system: Mycobacterium fortuitum (ATCC #6841) biofilm; assay: Protocol #6 mycobacterial biofilm in silicone tubing; format: cell-based; conditions: pH 9.0, 5 hours contact time
Method: Two challenge microorganisms are separately evaluated: Brevundimonas diminuta (ATCC #19146) and Mycobacterium fortuitum (ATCC #6841). Biofilms of each challenge microorganism were formed in laboratory-created tubing loops consisting of a length of silicone tubing connected to a bottle of challenge microorganism in growth broth. The fluid within the tubing loop was recirculated for 10 to 14 days (Mycobacterium fortuitum) at a flowrate of 30 mL/minute while held at 36° C. (Mycobacterium fortuitum). Following completion of biofilm generation, the tubing loops were drained, and the tube lumen gently rinsed with phosphate-buffered water to remove planktonic (i.e., non-biofilm) challenge microorganisms. The tubing was then disinfected according to the manufacturer's Instructions for Use. At the completion of treatment, a portion of the silicone tubing was removed for analysis of biofilm concentration and imaging of biofilm coverage.

Which “time to resolution of cold sores” value (cold sores) does the source give for `Nc1nc2c(ncn2COCCO)c(=O)[nH]1` [Acyclovir, acyclovir] here?
Its value is 7 to 14 days.

With `O=C(OOC(=O)c1ccccc1)c1ccccc1` [BPO, benzoyl peroxide] as the compound, how does the “BPO absorbed through the skin” value [1] read?
The value was 5-9%.

For `CCCCCCCC(=O)O` [Caprylic acid], which “reduction in the infectivity titer / inactivation” value (C. trachomatis) is on record?
Its value is “negligible effects”.

With `CCCCCCCCCCCC(=O)OCC(O)CO` (centres unmarked) [GML, glycerol monolaurate] as the compound, how does the “maximum concentration of GML solubilized” value ([2]; EtOH 1% as solvent) read?
Its value is 0.1%.

What about the GML concentration solubilized ([2]; deoiled lecithin as solubilizer) of the same compound?
The GML concentration solubilized was ≥ 20%.

And the log reduction (enveloped viruses)?
The log reduction was > 3.

What about the “reduction in the infectivity titer / inactivation” value (C. trachomatis) of the same compound?
The value was “negligible effects”.

And the “Log Reductions 0.5 (30 seconds)” value (P. acnes; pH 4.0, 30 seconds exposure)?
The value was 1.87.

And the “Log Reductions 5 min” value (P. acnes; pH 4.0, 5 min exposure)?
The value was 4.81.

What about the maximal water solubility [3] of the same compound?
Its maximal water solubility is < 100 µg/mL.

What about the “LRs against planktonic C. albicans” value [4] of the same compound?
Its value is 0-1.

What about the “LR PA” value [5] of the same compound?
The value was 9.11.

What about the “LR 30 sec” value [6] of the same compound?
The value was > 5.5 and > 4.75 and > 5.25.

What does the source list for `CCCCCCCCN=c1ccn(CCCCCCCCCCn2ccc(=NCCCCCCCC)cc2)cc1` [I: OCT 0.1%, 1 mg/mL, octenidine]?
Log10 Reduction [7]: 1.84; Percent Reduction [7]: 98.56%; Log10 CFU/Coupon [7]: 7.31; Log10 Reduction ([8]; 1 mg/mL.): 3.28; Percent Reduction ([8]; 1 mg/mL.): 99.95%; Log10 CFU/Coupon ([8]; 1 mg/mL.): 4.93

With `CCCCCCCCN=c1ccn(CCCCCCCCCCn2ccc(=NCCCCCCCC)cc2)cc1` [J: OCT 0.02%, 0.2 mg/mL, octenidine] as the compound, how does the “Log10 Reduction” value [7] read?
The value was 0.80.

And the “Percent Reduction” value [7]?
Its value is 84.48%.

What about the “Log10 CFU/Coupon” value [7] of the same compound?
Its value is 8.35.

What about the “Log10 Reduction” value ([8]; 0.2 mg/ml) of the same compound?
Its value is 1.87.

What about the “Percent Reduction” value ([8]; 0.2 mg/ml) of the same compound?
The value was 98.68%.

And the “Log10 CFU/Coupon” value ([8]; 0.2 mg/ml)?
The value was 6.34.

For `CCCCCCCCN=c1ccn(CCCCCCCCCCn2ccc(=NCCCCCCCC)cc2)cc1` [OCT, octenidine], which “LOG REDUCTIONS Staph” value ([9]; Acid pH 4.0) is on record?
Its value is 1.08.

And the “LOG REDUCTIONS Staph” value ([9]; Alkaline pH 8.5)?
Its value is 7.9.

What about the “LOG REDUCTIONS Pseud” value ([10]; Acid pH 4.0) of the same compound?
Its value is 4.9.

And the “LOG REDUCTIONS Pseud” value ([10]; Alkaline pH 8.5)?
The value was 9.11.

With `CCCCCCCCCCCCOS(=O)(=O)[O-].[Na+]` [SLS, sodium lauryl sulfate] as the compound, how does the “LR PA” value [5] read?
The value was 3.76.

With `CC(C)CCCCCCCCC[C@@H]1CC(=O)N[C@@H](CCC(=O)O)C(=O)N[C@@H](CC(C)C)C(=O)N[C@H](CC(C)C)C(=O)N[C@@H](C(C)C)C(=O)N[C@@H](CC(=O)O)C(=O)N[C@H](CC(C)C)C(=O)N[C@@H](CC(C)C)C(=O)O1` [Surfactin] (EL[dL]VD[dL]L; linker N-C via X1) as the compound, how does the “Log10 Reduction” value [7] read?
The value was 0.00.

What about the “Percent Reduction” value [7] of the same compound?
The value was 0.00%.

What about the “Log10 CFU/Coupon” value [7] of the same compound?
Its value is 9.18.

And the “Log10 Reduction” value [8]?
Its value is 0.00.

What about the “Percent Reduction” value [8] of the same compound?
Its value is 0.00%.

And the “Log10 CFU/Coupon” value [8]?
The value was 8.28.

For `C=CCCCCCCCCC(=O)O` [UDA, undecylenic acid], which LR [11] is on record?
Its LR is > 4.

And the LR [12]?
The LR was > 5.31.

With `CCCCCCCCCC(=O)OCC(O)CO` (centres unmarked) [monocaprin] as the compound, how does the “reduction in the infectivity titer / inactivation” value (C. trachomatis) read?
Its value is > 5 log 10.

For `CCCCCCCC(=O)OCC(O)CO` (centres unmarked) [monocaprylin], which “reduction in the infectivity titer / inactivation” value (C. trachomatis) is on record?
The value was “negligible effects”.

Which “reduction in the infectivity titer / inactivation” value (C. trachomatis) does the source give for `CCCCCCCC/C=C\CCCCCCCC(=O)OCC(O)CO` (centres unmarked) [monoolein] here?
Its value is “negligible effects”.

Which “reduction in the infectivity titer / inactivation” value (C. trachomatis) does the source give for `CCCCCC/C=C\CCCCCCCC(=O)OCC(O)CO` (centres unmarked) [monopalmitolein] here?
Its value is “negligible effects”.

For `CCCCCCCCCCCCCC(=O)O` [myristic acid], which “reduction in the infectivity titer / inactivation” value (C. trachomatis) is on record?
Its value is “negligible effects”.

For `CCCCCCCC/C=C\CCCCCCCC(=O)O` [oleic acid], which “reduction in the infectivity titer / inactivation” value (C. trachomatis) is on record?
Its value is “negligible effects”.

With `CCCCCC/C=C\CCCCCCCC(=O)O` [palmitoleic acid] as the compound, how does the “reduction in the infectivity titer / inactivation” value (C. trachomatis) read?
The value was “negligible effects”.

Which results are given for benzalkonium chloride [BAC]?
LOG REDUCTIONS Staph ([9]; Acid pH 4.0): 6.12 and > 7; LOG REDUCTIONS Pseud ([10]; Acid pH 4.0): > 6 and > 7
